Experimental data: ChEMBL document CHEMBL4316596, “Antimicrobial Peptides with High Proteolytic Resistance for Combating Gram-Negative Bacteria” (J Med Chem, 2019)

Tests used:
[1] = system: Pseudomonas aeruginosa; test: Antimicrobial activity against Pseudomonas aeruginosa CICC 21625 clinical isolates after 24 hrs by NCCLS-protocol based assay; assay type: functional; settings: CICC 21625, 24 h
[2] = system: Escherichia coli; test: Bactericidal activity against Escherichia coli 078 incubated for 4 hrs followed by culture spread on agar plates and cultured overnight; assay type: functional; settings: Escherichia coli, 078, 4 h; read-out: MBC>99.9
[3] = system: Pseudomonas aeruginosa; test: Bactericidal activity against Pseudomonas aeruginosa 26305 clinical isolates incubated for 4 hrs followed by culture spread on agar plates and cultured overnight; assay type: functional; settings: Pseudomonas aeruginosa, 26305, 4 h; read-out: MBC>99.9
[4] = system: Klebsiella pneumoniae; test: Bactericidal activity against Klebsiella pneumoniae incubated for 4 hrs followed by culture spread on agar plates and cultured overnight; assay type: functional; settings: read-out: MBC>99.9
[5] = system: Pseudomonas aeruginosa; test: Antimicrobial activity against Pseudomonas aeruginosa 25349 clinical isolates after 24 hrs by NCCLS-protocol based assay; assay type: functional; settings: Pseudomonas aeruginosa, 25349, 24 h
[6] = system: Salmonella typhimurium; test: Bactericidal activity against Salmonella typhimurium ATCC 14028 incubated for 4 hrs followed by culture spread on agar plates and cultured overnight; assay type: functional, Salmonella enterica subsp. enterica serovar Typhimurium; settings: Salmonella enterica, ATCC 14028, 4 h; read-out: MBC>99.9
[7] = system: Salmonella typhimurium; test: Bactericidal activity against Salmonella typhimurium C7731 incubated for 4 hrs followed by culture spread on agar plates and cultured overnight; assay type: functional, Salmonella enterica subsp. enterica serovar Typhimurium; settings: Salmonella enterica, C7731, 4 h; read-out: MBC>99.9
[8] = system: Klebsiella pneumoniae; test: Antimicrobial activity against Klebsiella pneumoniae after 24 hrs by NCCLS-protocol based assay; assay type: functional
[9] = system: Escherichia coli; test: Bactericidal activity against Escherichia coli K88 incubated for 4 hrs followed by culture spread on agar plates and cultured overnight; assay type: functional; settings: K88, 4 h, read-out: MBC>99.9
[10] = system: Escherichia coli; test: Antimicrobial activity against Escherichia coli UB1005 after 24 hrs by NCCLS-protocol based assay; assay type: functional; settings: UB1005, 24 h
[11] = system: Escherichia coli; test: Bactericidal activity against Escherichia coli ATCC 25922 incubated for 4 hrs followed by culture spread on agar plates and cultured overnight in presence of CaCl2; assay type: functional; settings: ATCC 25922, 4 h, read-out: MBC>99.9
[12] = system: Acinetobacter baumannii; test: Bactericidal activity against Acinetobacter baumannii incubated for 4 hrs followed by culture spread on agar plates and cultured overnight; assay type: functional; settings: read-out: MBC>99.9
[13] = system: Escherichia coli; test: Bactericidal activity against Escherichia coli ATCC 25922 incubated for 4 hrs followed by culture spread on agar plates and cultured overnight in presence of KCl; assay type: functional; settings: ATCC 25922, 4 h, read-out: MBC>99.9
[14] = system: Escherichia coli; test: Bactericidal activity against Escherichia coli ATCC 25922 incubated for 4 hrs followed by culture spread on agar plates and cultured overnight in presence of 12.5% serum albumin; assay type: functional; settings: ATCC 25922, 4 h, read-out: MBC>99.9
[15] = system: Pseudomonas aeruginosa; test: Bactericidal activity against Pseudomonas aeruginosa 25349 clinical isolates incubated for 4 hrs followed by culture spread on agar plates and cultured overnight; assay type: functional; settings: Pseudomonas aeruginosa, 25349, 4 h; read-out: MBC>99.9
[16] = system: Pseudomonas aeruginosa; test: Antimicrobial activity against Pseudomonas aeruginosa 26305 clinical isolates after 24 hrs by NCCLS-protocol based assay; assay type: functional; settings: Pseudomonas aeruginosa, 26305, 24 h
[17] = system: Escherichia coli; test: Bactericidal activity against Escherichia coli ATCC 25922 incubated for 4 hrs followed by culture spread on agar plates and cultured overnight in presence of NH4Cl; assay type: functional; settings: ATCC 25922, 4 h, read-out: MBC>99.9
[18] = Bactericidal activity against Salmonella pullorum C7913 incubated for 4 hrs followed by culture spread on agar plates and cultured overnight; assay type: functional, Salmonella enterica subsp. enterica serovar Pullorum; settings: Salmonella enterica, C7913, 4 h; read-out: MBC>99.9
[19] = system: Pseudomonas aeruginosa; test: Bactericidal activity against Pseudomonas aeruginosa CICC 21630 clinical isolates incubated for 4 hrs followed by culture spread on agar plates and cultured overnight; assay type: functional; settings: CICC 21630, 4 h, read-out: MBC>99.9
[20] = system: Escherichia coli; test: Bactericidal activity against Escherichia coli K99 incubated for 4 hrs followed by culture spread on agar plates and cultured overnight; assay type: functional; settings: K99, 4 h, read-out: MBC>99.9
[21] = system: Escherichia coli; test: Bactericidal activity against Escherichia coli ATCC 25922 incubated for 4 hrs followed by culture spread on agar plates and cultured overnight in presence of FeCl3; assay type: functional; settings: ATCC 25922, 4 h, read-out: MBC>99.9
[22] = system: Escherichia coli; test: Antimicrobial activity against Escherichia coli K88 after 24 hrs by NCCLS-protocol based assay; assay type: functional; settings: K88, 24 h
[23] = system: Salmonella typhimurium; test: Antimicrobial activity against Salmonella typhimurium C7731 after 24 hrs by NCCLS-protocol based assay; assay type: functional, Salmonella enterica subsp. enterica serovar Typhimurium; settings: Salmonella enterica, C7731, 24 h
[24] = system: Acinetobacter baumannii; test: Antimicrobial activity against Acinetobacter baumannii after 24 hrs by NCCLS-protocol based assay; assay type: functional
[25] = system: Pseudomonas aeruginosa; test: Antimicrobial activity against Pseudomonas aeruginosa PAO1 after 24 hrs by NCCLS-protocol based assay; assay type: functional; settings: PAO1, 24 h
[26] = system: Pseudomonas aeruginosa; test: Antimicrobial activity against Pseudomonas aeruginosa CICC 21630 clinical isolates after 24 hrs by NCCLS-protocol based assay; assay type: functional; settings: CICC 21630, 24 h
[27] = system: Escherichia coli; test: Antimicrobial activity against Escherichia coli K99 after 24 hrs by NCCLS-protocol based assay; assay type: functional; settings: K99, 24 h
[28] = system: Escherichia coli; test: Bactericidal activity against Escherichia coli ATCC 25922 incubated for 4 hrs followed by culture spread on agar plates and cultured overnight in presence of MgCl2; assay type: functional; settings: ATCC 25922, 4 h, read-out: MBC>99.9
[29] = system: Escherichia coli; test: Bactericidal activity against Escherichia coli ATCC 25922 incubated for 4 hrs followed by culture spread on agar plates and cultured overnight in presence of 50% serum albumin; assay type: functional; settings: ATCC 25922, 4 h, read-out: MBC>99.9
[30] = system: Escherichia coli; test: Bactericidal activity against Escherichia coli UB1005 incubated for 4 hrs followed by culture spread on agar plates and cultured overnight; assay type: functional; settings: UB1005, 4 h, read-out: MBC>99.9
[31] = system: Escherichia coli; test: Antimicrobial activity against Escherichia coli 078 after 24 hrs by NCCLS-protocol based assay; assay type: functional; settings: Escherichia coli, 078, 24 h
[32] = system: Pseudomonas aeruginosa; test: Antimicrobial activity against Pseudomonas aeruginosa ATCC 27853 after 24 hrs by NCCLS-protocol based assay; assay type: functional; settings: ATCC 27853, 24 h
[33] = system: Pseudomonas aeruginosa; test: Bactericidal activity against Pseudomonas aeruginosa CICC 21625 clinical isolates incubated for 4 hrs followed by culture spread on agar plates and cultured overnight; assay type: functional; settings: CICC 21625, 4 h, read-out: MBC>99.9
[34] = system: Escherichia coli; test: Bactericidal activity against Escherichia coli ATCC 25922 incubated for 4 hrs followed by culture spread on agar plates and cultured overnight; assay type: functional; settings: ATCC 25922, 4 h, read-out: MBC>99.9
[35] = system: Salmonella typhimurium; test: Antimicrobial activity against Salmonella typhimurium ATCC 14028 after 24 hrs by NCCLS-protocol based assay; assay type: functional, Salmonella enterica subsp. enterica serovar Typhimurium; settings: Salmonella enterica, ATCC 14028, 24 h
[36] = Antimicrobial activity against Salmonella pullorum C7913 after 24 hrs by NCCLS-protocol based assay; assay type: functional, Salmonella enterica subsp. enterica serovar Pullorum; settings: Salmonella enterica, C7913, 24 h
[37] = system: Escherichia coli; test: Bactericidal activity against Escherichia coli ATCC 25922 incubated for 4 hrs followed by culture spread on agar plates and cultured overnight in presence of ZnCl2; assay type: functional; settings: ATCC 25922, 4 h, read-out: MBC>99.9
[38] = system: Pseudomonas aeruginosa; test: Bactericidal activity against Pseudomonas aeruginosa ATCC 27853 incubated for 4 hrs followed by culture spread on agar plates and cultured overnight; assay type: functional; settings: ATCC 27853, 4 h, read-out: MBC>99.9
[39] = system: Pseudomonas aeruginosa; test: Bactericidal activity against Pseudomonas aeruginosa PAO1 incubated for 4 hrs followed by culture spread on agar plates and cultured overnight; assay type: functional; settings: PAO1, 4 h, read-out: MBC>99.9
[40] = system: Escherichia coli; test: Bactericidal activity against Escherichia coli ATCC 25922 incubated for 4 hrs followed by culture spread on agar plates and cultured overnight in presence of NaCl; assay type: functional; settings: ATCC 25922, 4 h, read-out: MBC>99.9
[41] = system: Escherichia coli; test: Antimicrobial activity against Escherichia coli ATCC 25922 after 24 hrs by NCCLS-protocol based assay; assay type: functional; settings: ATCC 25922, 24 h
[42] = system: Escherichia coli; test: Bactericidal activity against Escherichia coli ATCC 25922 incubated for 4 hrs followed by culture spread on agar plates and cultured overnight in presence of 25% serum albumin; assay type: functional; settings: ATCC 25922, 4 h, read-out: MBC>99.9

## H-IKPIIKPIIKPIIKPIIKPIIKPI-NH2
[1]
  MIC95: > 64 µM
[2]
  MBC: > 64 µM
[3]
  MBC: > 64 µM
[4]
  MBC: > 64 µM
[5]
  MIC95: > 64 µM
[6]
  MBC: > 64 µM
[7]
  MBC: > 64 µM
[8]
  MIC95: > 64 µM
[9]
  MBC: 8 µM
[10]
  MIC95: 16 µM
[11]
  MBC: > 128 µM
[12]
  MBC: 16 µM
[13]
  MBC: > 128 µM
[14]
  MBC: > 128 µM
[15]
  MBC: > 64 µM
[16]
  MIC95: > 64 µM
[17]
  MBC: > 128 µM
[18]
  MBC: > 64 µM
[19]
  MBC: > 64 µM
[20]
  MBC: 16 µM
[21]
  MBC: > 128 µM
[22]
  MIC95: 4 µM
[23]
  MIC95: > 64 µM
[24]
  MIC95: 16 µM
[25]
  MIC95: > 64 µM
[26]
  MIC95: > 64 µM
[27]
  MIC95: 8 µM
[28]
  MBC: > 128 µM
[29]
  MBC: > 128 µM
[30]
  MBC: 32 µM
[31]
  MIC95: 64 µM
[32]
  MIC95: > 64 µM
[33]
  MBC: > 64 µM
[34]
  MBC: 32 µM
[35]
  MIC95: 64 µM
[36]
  MIC95: 64 µM
[37]
  MBC: > 128 µM
[38]
  MBC: > 64 µM
[39]
  MBC: > 64 µM
[40]
  MBC: > 128 µM
[41]
  MIC95: 16 µM
[42]
  MBC: > 128 µM

## H-IRPIIRPIIRPIIRPIIRPIIRPI-NH2
[1]
  MIC95: > 64 µM
[2]
  MBC: 2 µM
[3]
  MBC: > 64 µM
[4]
  MBC: 8 µM
[5]
  MIC95: > 64 µM
[6]
  MBC: 4 µM
[7]
  MBC: 4 µM
[8]
  MIC95: 16 µM
[9]
  MBC: 1 µM
[10]
  MIC95: 2 µM
[11]
  MBC: > 128 µM
[12]
  MBC: 8 µM
[13]
  MBC: 4 µM
[14]
  MBC: 16 µM
[15]
  MBC: > 64 µM
[16]
  MIC95: > 64 µM
[17]
  MBC: 8 µM
[18]
  MBC: 8 µM
[19]
  MBC: > 64 µM
[20]
  MBC: 4 µM
[21]
  MBC: 8 µM
[22]
  MIC95: 1 µM
[23]
  MIC95: 4 µM
[24]
  MIC95: 4 µM
[25]
  MIC95: 8 µM
[26]
  MIC95: > 64 µM
[27]
  MIC95: 2 µM
[28]
  MBC: 8 µM
[29]
  MBC: 64 µM
[30]
  MBC: 2 µM
[31]
  MIC95: 2 µM
[32]
  MIC95: 8 µM
[33]
  MBC: > 64 µM
[34]
  MBC: 2 µM
[35]
  MIC95: 4 µM
[36]
  MIC95: 4 µM
[37]
  MBC: 4 µM
[38]
  MBC: 16 µM
[39]
  MBC: 16 µM
[40]
  MBC: 32 µM
[41]
  MIC95: 2 µM
[42]
  MBC: 32 µM
